The values that follow come from the NIST ThermoML archive (doi:10.1016/j.jct.2014.05.003).

The nature of data set [1]: wn = mass fraction of the nth substance listed. The conditions noted are these: 298.15 K, 100 kPa, Liquid, Vibrating tube method.
Data set [2] in a line: relative permittivity at zero frequency (dimensionless); wn = mass fraction of the nth substance listed. The conditions noted are these: 298.15 K, 100 kPa, Liquid, Coaxial cylinder capacitor.

Numbers after ± are expanded uncertainties.

As a reminder, the mass density is mass per unit of volume.

Consider `CC(=O)N(C)C` [N,N-dimethylethanamide] + O, for which the mass density stood at 995.7 ± 1 kg/m3 in data set [1] (w1 = 0.1), 996.2 ± 1 kg/m3 in data set [1] (w1 = 0.2) and 997.3 ± 1 kg/m3 in data set [1] (w1 = 0.3).
As for `CN(C)C=O` [dimethylformamide] + O, the mass density in data set [1] (w1 = 0.1) is reported as 996.3 ± 1 kg/m3; in data set [1] (w1 = 0.2), 996.4 ± 1 kg/m3; in data set [1] (w1 = 0.3), 996.9 ± 1 kg/m3. The “relative permittivity at zero frequency” value is reported as 76.8 ± 0.2 in data set [2] (w1 = 0.1), 74.6 ± 0.2 in data set [2] (w1 = 0.2) and 72.2 ± 0.2 in data set [2] (w1 = 0.3).
